Measurements from patent US20240360126A1, “PYRAZOLO[3,4-B]PYRIDINE COMPOUNDS FOR THE TREATMENT OF AUTOIMMUNE DISEASE” (Hoffmann-La Roche Inc., priority 2021, published 2024).

Key:
[1] = Human microsome stability assay; assay type: in vitro ADME; details: for Clearance of Human microsome: 1 μM test compound, 0.5 mg/mL liver microsomal protein, 37° C.
Protocol: The human microsomal stability assay is used for early assessment of metabolic stability of a test compound in human liver microsomes.
Human liver microsomes (Cat. NO.: 452117, Corning, USA; Cat. NO.:H2610, Xenotech, USA) were preincubated with test compound for 10 minutes at 37° C. in 100 mM potassium phosphate buffer, pH 7.4. The reactions were initiated by adding NADPH regenerating system.
The final incubation mixtures contained 1 μM test compound, 0.5 mg/mL liver microsomal protein, 1 mM MgCl2, 1 mM NADP, 1 unit/mL isocitric dehydrogenase and 6 mM isocitric acid in 100 mM potassium phosphate buffer, pH 7.4. After incubation times of 0, 3, 6, 9, 15 and 30 minutes at 37° C., 300 μL of cold acetonitrile (including internal standard) was added to 100 μL incubation mixture to terminate the reaction. Following precipitation and centrifugation, the amount of compound remaining in the samples were determined by LC-MS/MS. Controls of no NADPH regenerating system at zero and 30 minutes were also prepared and analyzed.

[2] = biological target: T1, TLR9 (Homo sapiens, UniProt Q9NR96); test: TLR9 activity of Novartis WO2018047081 compounds (background comparison)
T1 sequence (Q9NR96 26-1032): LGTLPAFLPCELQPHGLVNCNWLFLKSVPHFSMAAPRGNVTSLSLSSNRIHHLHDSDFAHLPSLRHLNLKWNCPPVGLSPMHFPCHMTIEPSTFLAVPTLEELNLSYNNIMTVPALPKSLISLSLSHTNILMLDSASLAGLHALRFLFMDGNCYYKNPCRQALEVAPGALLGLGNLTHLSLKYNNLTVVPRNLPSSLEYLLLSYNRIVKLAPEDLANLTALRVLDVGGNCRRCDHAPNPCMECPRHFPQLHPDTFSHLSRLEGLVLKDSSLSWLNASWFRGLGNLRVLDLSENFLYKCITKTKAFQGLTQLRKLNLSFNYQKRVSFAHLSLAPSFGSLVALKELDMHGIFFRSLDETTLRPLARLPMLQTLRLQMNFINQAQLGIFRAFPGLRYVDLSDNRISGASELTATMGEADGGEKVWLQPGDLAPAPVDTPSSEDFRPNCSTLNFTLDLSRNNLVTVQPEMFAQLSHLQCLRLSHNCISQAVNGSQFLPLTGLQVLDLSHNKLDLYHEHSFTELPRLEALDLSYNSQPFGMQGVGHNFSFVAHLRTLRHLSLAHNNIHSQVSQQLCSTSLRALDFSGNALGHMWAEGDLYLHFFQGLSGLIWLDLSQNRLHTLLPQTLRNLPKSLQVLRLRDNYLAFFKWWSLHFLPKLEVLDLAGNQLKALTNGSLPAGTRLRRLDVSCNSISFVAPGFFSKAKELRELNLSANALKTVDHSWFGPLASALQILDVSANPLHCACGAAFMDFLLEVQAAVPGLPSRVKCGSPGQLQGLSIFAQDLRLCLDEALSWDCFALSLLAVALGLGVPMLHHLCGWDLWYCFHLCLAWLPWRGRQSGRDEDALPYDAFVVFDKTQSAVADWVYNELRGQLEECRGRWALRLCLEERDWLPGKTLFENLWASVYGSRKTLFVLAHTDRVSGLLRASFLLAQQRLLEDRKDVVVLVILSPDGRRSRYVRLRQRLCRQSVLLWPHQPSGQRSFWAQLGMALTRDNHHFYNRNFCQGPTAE

[3] = biological target: T2, hERG K+ channel (Homo sapiens, UniProt Q12809); test: hERG channel inhibition assay (patch-clamp, CHO-hERG cells); assay type: cell-based; details: for IC50 / IC20: CHO-hERG cells, whole-cell patch-clamp; for IC20: human, CHO cells stably expressing hERG; for hERG IC20/TLR7 IC50 / hERG IC20/TLR8 IC50 / hERG IC20/TLR9 IC50: safety ratio
T2 construct: expressed in transfected cells; host or cells: CHO (Chinese hamster ovary)
T2 sequence (Q12809 whole entry): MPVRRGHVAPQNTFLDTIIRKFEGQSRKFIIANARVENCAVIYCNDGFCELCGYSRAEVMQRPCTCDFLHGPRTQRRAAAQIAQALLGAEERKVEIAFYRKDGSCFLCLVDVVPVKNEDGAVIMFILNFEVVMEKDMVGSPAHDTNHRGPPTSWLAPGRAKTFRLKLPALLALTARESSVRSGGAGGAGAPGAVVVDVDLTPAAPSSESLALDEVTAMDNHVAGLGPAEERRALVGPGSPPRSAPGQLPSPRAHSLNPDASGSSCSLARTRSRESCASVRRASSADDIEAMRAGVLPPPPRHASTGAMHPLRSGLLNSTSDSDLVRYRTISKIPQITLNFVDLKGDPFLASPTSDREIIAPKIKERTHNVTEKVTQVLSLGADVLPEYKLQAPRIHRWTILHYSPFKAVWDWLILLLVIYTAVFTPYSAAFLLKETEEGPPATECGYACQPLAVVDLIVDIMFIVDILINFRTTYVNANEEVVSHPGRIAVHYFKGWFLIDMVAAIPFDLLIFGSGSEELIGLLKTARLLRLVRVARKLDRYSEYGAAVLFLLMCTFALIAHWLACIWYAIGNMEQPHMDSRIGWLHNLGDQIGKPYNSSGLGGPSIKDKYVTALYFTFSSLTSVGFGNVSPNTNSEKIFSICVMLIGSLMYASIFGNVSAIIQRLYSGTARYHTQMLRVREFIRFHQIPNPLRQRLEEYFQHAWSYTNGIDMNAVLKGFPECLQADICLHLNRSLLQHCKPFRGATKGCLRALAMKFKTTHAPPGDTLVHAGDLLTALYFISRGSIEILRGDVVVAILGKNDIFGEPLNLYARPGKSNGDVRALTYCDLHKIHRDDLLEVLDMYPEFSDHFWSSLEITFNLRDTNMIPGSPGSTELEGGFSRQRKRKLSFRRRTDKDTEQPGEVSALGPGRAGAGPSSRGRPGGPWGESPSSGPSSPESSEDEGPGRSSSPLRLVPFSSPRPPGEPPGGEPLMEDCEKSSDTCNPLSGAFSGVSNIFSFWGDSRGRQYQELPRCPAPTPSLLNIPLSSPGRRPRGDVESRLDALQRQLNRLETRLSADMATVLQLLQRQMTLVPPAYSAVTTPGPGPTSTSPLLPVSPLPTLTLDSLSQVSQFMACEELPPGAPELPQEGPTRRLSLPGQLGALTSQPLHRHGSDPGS
Protocol: The hERG K^+ channels were cloned in humans and stably expressed in a CHO (Chinese hamster ovary) cell line. CHOhERG cells were used for patch-clamp (voltage-clamp, whole-cell) experiments. Cells were stimulated by a voltage pattern to activate hERG channels and conduct IKhERG Currents (rapid delayed outward rectifier potassium current of the hERG channel). After the cells were stabilized for a few minutes, the amplitude and kinetics of IKhERG were recorded at a stimulation frequency of 0.1 Hz (6 bpm). Thereafter, the test compound was added to the preparation at increasing concentrations. For each concentration, an attempt was made to reach a steady-state effect, usually, this was achieved within 3-10 min at which time the next highest concentration was applied. The amplitude and kinetics of IKhERG are recorded in each concentration of the drug which were compared to the control values (taken as 100%). (references: Redfe W S, Carlsson L, Davis A S, Lynch W G, MacKenzie I, Palethorpe S, Siegl P K, Strang I, Sullivan A T, Wallis R, Camm A J, Hammond T G. 2003; Relationships between preclinical cardiac electrophysiology, clinical QT interval prolongation and torsade de pointes for a broad range of drugs: evidence for a provisional safety margin in drug development. Cardiovasc. Res. 58:32-45, Sanguinetti M C, Tristani-Firouzi M. 2006; hERG potassium channels and cardiac arrhythmia. Nature 440:463-469, Webster R, Leishman D, Walker D. 2002; Towards a drug concentration effect relationship for QT prolongation and torsades de pointes. Curr. Opin. Drug Discov. Devel. 5:116-26).

[4] = biological target: T1, TLR9; test: Human PBMC cell-based assay; set-up: These cells express TLR7, TLR8, or TLR9, and therefore are natural responders to respective ligand stimulation; endogenous in cells; host or cells: human PBMC from healthy donor whole blood; details: CpG ODN 2216 at 1 μM, read-out: hPBMC/TLR9 IC50
Source text: Unlike the HEK reporter cell lines, human peripheral blood mononuclear cell (PBMC) represents primary human immune cells in blood mainly consisting of lymphocytes, monocytes, and dendritic cells. These cells express TLR7, TLR8, or TLR9, and therefore are natural responders to respective ligand stimulation. Upon activation of these TLRs, PBMCs secrete similar cytokines and chemokines in vitro and in vivo, and therefore the in vitro potency of a TLR7/8/9 antagonist in human PBMC is readily translatable to its pharmacodynamics response in vivo.
Human peripheral blood mononuclear cells (PBMC) were isolated from freshly-drawn lithium-heparinized (Lithium Heparin Plus blood Collection tube, BD Vacutainer®) healthy donor whole blood by density gradient (Ficoll-Paque™ PLUS, GE Healthcare life Sciences). Briefly, […] was diluted with 25 mL PBS (without Ca^2+, Mg^2+) in a 50 mL conical tube with porous barrier (Leucosep tube, Greiner bio-one), where 15.5 mL Ficoll-Paque was under laid after spinning. Tubes were centrifuged for 20 minutes at 800×g (1946 rpm) with the brake in the off position, and PBMC were collected from the buffy coat. Cells were then washed twice in PBS, and red blood cells were lysed by suspension in 2 mL (Red Blood Cell Lysis Buffer, Alfa Aesar) for 5-10 minutes at room temperature. After a final wash in PBS, PBMC were resuspended at a final concentration of 2×10^6 cells/mL in RPMI-1640 media with GlutaMAX™ (Gibco) supplemented with 10% Fetal Bovine Serum (Sigma) and plated at 150 μL/well (3×10^5 cells/well) in tissue culture treated round bottom 96-well plates (Corning Incorporated). Antagonist compounds (compounds of this invention) solubilized and serial diluted in 100% DMSO were added in duplicate to cells to yield a final concentration of 1% DMSO (v/v). PBMC were incubated with antagonist compounds for 30 minutes at 37° C., 5% CO2 before adding various TLR agonist reagents in 48 μL complete media per well as follows (final concentrations indicated): CpG ODN 2216 (InvivoGen) at 1 μM for TLR9, ORN 06/LyoVec (InvivoGen) at […] for TLR8 and R848 (InvivoGen) at 1 μg/mL for TLR7 and TLR8. PBMC were incubated overnight at 37° C. with 5% C02. Cell culture supernatants were collected, and levels of various human cytokines were assessed by Luminex assay (ProcartaPlex™ Multiplex Immunoassay, Invitrogen) or ELISA procedure according to the manufacturer's recommended protocol (eBioscience, ThermoFisher Scientific). Viability of the cells was also checked with Cell Viability Assay (CellTiter Glo® Luminescent Cell Viability Assay, Promega).

Compound | human liver microsome stability (in words) [1] | Clearance of Human microsome [1] [mL/min/kg] | TLR9 activity (in words) [2] | IC50 [3] [µM] | IC20 [3] [µM] | hERG IC20/TLR7 IC50 [3] | hERG IC20/TLR8 IC50 [3] | hERG IC20/TLR9 IC50 [3] | IC50 [4] [µM]
Cc1cc(N2CCc3c(c(C)nn3CC34CCC(NC(=O)[C@@H]5COCCN5)(CC3)CC4)C2)c2cnn(C)c2n1 [Example N8, reference compound] | poor | 16.3 | much lower TLR9 activity | – | – | – | – | – | –
Cc1cc(N2CCC(c3ncc(N4CCNCC4)nc3C)CC2)c2cnn(C)c2n1 [Example 12, 1,6-dimethyl-4-[4-(3-methyl-5-piperazin-1-yl-pyrazin-2-yl)-1-piperidyl]pyrazolo[3,4-b]pyridine] | – | 9.7 | – | > 20 | 7 | 205.9 | 233.3 | 15.5 | –
Cc1cc(N2CC[C@@H](c3ncc(N4CCNC5(CC5)C4)cc3C)[C@H](C)C2)c2cnn(C)c2n1 [Example 30, 4-[(3S,4R)-4-[5-(4,7-diazaspiro[2.5]octan-7-yl)-3-methyl-2-pyridyl]-3-methyl-1-piperidyl]-1,6-dimethyl-pyrazolo[3,4-b]pyridine] | – | – | – | > 10 | 4.9 | 544.4 | 350.0 | 11.6 | 0.78
C[C@@H]1CN(c2ccnc3c2cnn3C)CC[C@H]1c1ccc(N2CCNCC2)nc1 (relative stereo) [Example 19, 1-methyl-4-[trans-3-methyl-4-(6-piperazin-1-yl-3-pyridyl)-1-piperidyl]pyrazolo[3,4-b]pyridine] | – | 6.2 | – | – | – | – | – | – | –
Cc1cc(N2CCc3c(c(C)nn3CC34CCC(N(C)C5CCC5)(CC3)CC4)C2)c2cnn(C)c2n1 [Example N79, reference compound] | poor | 18.2 | best TLR9 activity | – | – | – | – | – | –
